The results in this text go back to patent US11472803B2, “7-substituted 1-aryl-naphthyridine-3-carboxylic acid amides and use thereof” (Bayer Aktiengesellschaft, priority 2016, dated 2022).

Test [1] has as its target T1, human M2 receptor (Homo sapiens, UniProt P08172).
T1 construct: expressed in transfected cells; host or cells: CHO-DUKX (CHO-DUKX-M2-GIRK)
T1 sequence (P08172 1-466): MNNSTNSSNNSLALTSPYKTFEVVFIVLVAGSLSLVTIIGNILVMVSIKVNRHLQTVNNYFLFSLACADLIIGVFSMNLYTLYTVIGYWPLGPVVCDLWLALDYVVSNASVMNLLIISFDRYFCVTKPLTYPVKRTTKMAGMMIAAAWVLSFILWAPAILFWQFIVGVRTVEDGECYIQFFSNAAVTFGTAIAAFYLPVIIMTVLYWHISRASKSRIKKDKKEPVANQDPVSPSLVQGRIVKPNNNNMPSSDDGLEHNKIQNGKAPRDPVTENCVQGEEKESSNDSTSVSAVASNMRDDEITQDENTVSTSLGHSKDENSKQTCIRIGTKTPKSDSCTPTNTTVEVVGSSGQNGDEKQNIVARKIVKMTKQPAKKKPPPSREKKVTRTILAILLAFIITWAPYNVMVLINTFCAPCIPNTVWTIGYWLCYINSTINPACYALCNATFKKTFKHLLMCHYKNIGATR
Nature of the test: Functional M2-GIRK1/4 activation test: positive cooperativity (α factor), shift of acetylcholine dose-response curve. The conditions noted are these: Allosteric EC50 shift of acetylcholine 8-point dose-response curve; CHO-DUKX-M2-GIRK cells; α>1 = positive cooperativity. The format is cell-based. From the text: The binding of orthosteric agonists (endogenous ligand: acetylcholine) to the M2 receptor leads to receptor activation or a change in conformation of the receptor in the manner of a shift in equilibrium in favour of the active receptor conformation.
The agonist-induced change in conformation of the M2 receptor results in a Gαi protein activation. […] Under physiological conditions, the result is then a selective efflux of potassium from the cell along the electrochemical gradient. […] The extent of hyperpolarization can therefore be regarded as a measure of the activation of the M2 receptor.
The test cell used is a recombinant CHO-DUKX cell line which has been stably transfected with cDNA coding for the human M2 receptor and with cDNA coding for both GIRK1/4 subunits (CHO-DUKX-M2-GIRK). The transmembrane potential, or the relative changes in the transmembrane potential as a function of substance addition or M2 activation, is determined by means of a voltage-sensitive dye (FLIPR Membrane Potential Assay Kit Blue, Molecular Devices #R8034) and the measurement of cell fluorescence using a proprietary fluorescence imaging instrument.
In accordance with the desired test concentrations, the substances were pre-diluted in loading buffer (see above).
The sowing medium consisted of MEM alpha medium (supplemented with 5% PCS, 2% Glutamax, no genticin).
For the particular measurement, the medium was removed and the cells were laden with the volt-age-sensitive dye for at least 6 min at room temperature (30 μl of loading buffer per 384-well). This was followed, in a first measurement, by the determination of the resting transmembrane potential for a period of 5 sec in 1 sec increments. Thereafter, 10 μl in each case of the test substances diluted in loading buffer are added, followed by a second measurement to determine the transmembrane potential for a period of 50 sec in 1 sec increments.
Finally, the cells are admixed with 10 μl of agonist solution (acetylcholine dissolved in loading buffer). In contrast to the EC50 determination of the test substances (see B-1.1), however, this is not done using one acetylcholine concentration; instead, every concentration of the test substance is combined with an acetylcholine 8-point dose-response curve. […] The M2-mediated GIRK1/4 activation or hyperpolarization is then monitored in a third measurement over a period of 60 sec in 1 sec increments. The shift in the acetylcholine dose-response curve in the presence of increasing concentrations of the test substance is analysed and quantified by means of GraphPad PRISM (Allosteric EC50 shift). […] Positive cooperativity is the hallmark of a positive allosteric modulator. […] The greater the magnitude of the α value, the greater the extent of cooperativity between orthosteric and allosteric.

The target of test [2] is T1, human M2 receptor. Put plainly: Functional M2-GIRK1/4 activation test: allosteric potency (EC50) and efficiency at EC20 acetylcholine. In kind it is cell-based. The conditions noted are these: CHO-DUKX-M2-GIRK cells; for EC50: voltage-sensitive dye, acetylcholine at EC20, in some cases mean of two or more determinations; for Efficiency / Emax: boosting of the acetylcholine effect at EC20 acetylcholine concentration. The method in brief: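 CHO-DUKX cells stably expressing human M2 and GIRK1/4; membrane potential tracked with voltage-sensitive dye at room temperature. Compound added 50 s before acetylcholine at its EC20, then hyperpolarization read 60 s. EC50 (allosteric potency) and efficiency (boost of EC20 ACh effect) from 4-parameter Hill fit.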

The structures appear in SMILES notation.

Regarding `C[C@@H](NC(=O)c1cn(-c2c(F)cc(F)cc2Cl)c2nc(N3C[C@@H](O)[C@H](O)C3)c(F)cc2c1=O)C(F)(F)F` (single isomer, unassigned) [Example 228], the “Cooperativity (alpha factor)” value on human M2 receptor [1] is 33. On human M2 receptor [2], the EC50 (usually the midpoint of the concentration-response curve) turned out to be 6.4 nM and the Efficiency was 93%.

For the compound `CC(NC(=O)c1cn(-c2c(F)cc(F)cc2F)c2nc(N3C[C@@H](O)[C@@H](O)C3)c(F)cc2c1=O)C(F)(F)C(F)(F)F` (single isomer, unassigned) [Example 94], the “Cooperativity (alpha factor)” value on human M2 receptor [1] was 34. In addition, the Emax (usually the size of the effect at its maximum, as opposed to the concentration needed) on human M2 receptor [2] came out at 100%.

Take `O=C(NC12CC(C1)C2)c1cn(-c2c(F)cc(F)cc2F)c2nc(N3C[C@@H](O)[C@H](O)C3)c(F)cc2c1=O` [Example 12, N-(bicyclo[1.1.1]pent-1-yl)-7-[(3R,4R)-3,4-dihydroxypyrrolidin-1-yl]-6-fluoro-4-oxo-1-(2,4,6-trifluorophenyl)-1,4-dihydro-1,8-naphthyridine-3-carboxamide]: the “Cooperativity (alpha factor)” value on human M2 receptor [1] turned out to be 40. In addition, at human M2 receptor [2], the EC50 was found to be 20 nM and the Emax turned out to be 90%.

As to `CC(C)C[C@H](NC(=O)c1cn(-c2c(F)cc(F)cc2F)c2nc(N3CC(O)[C@H](O)C3)c(F)cc2c1=O)C(F)(F)F` (stereo in doubt) [Example 11, 7-[(3R,4S)-3,4-dihydroxypyrrolidin-1-yl]-6-fluoro-4-oxo-N-[(2S)-1,1,1-trifluoro-4-methylpentan-2-yl]-1-(2,4,6-trifluorophenyl)-1,4-dihydro-1,8-naphthyridine-3-carboxamide], at human M2 receptor [1], the “Cooperativity (alpha factor)” value turned out to be 60. Also, on human M2 receptor [2], the EC50 was 5.8 nM and the Emax was determined as 100%.

As to `O=C(N[C@@H](C1CC1)C(F)(F)F)c1cn(-c2c(F)cc(F)cc2F)c2nc(N3C[C@@H](O)[C@H](O)C3)c(Br)cc2c1=O` [Example 160, 6-Bromo-N-[(1S)-1-cyclopropyl-2,2,2-trifluoroethyl]-7-[(3R,4R)-3,4-dihydroxypyrrolidin-1-yl]-4-oxo-1-(2,4,6-trifluorophenyl)-1,4-dihydro-1,8-naphthyridine-3-carboxamide], the “Cooperativity (alpha factor)” value on human M2 receptor [1] amounted to 38. For the same compound, at human M2 receptor [2], the EC50 was determined as 7.3 nM and the Emax was found to be 100%.

Regarding `O=C(N[C@@H](C1CC1)C(F)(F)F)c1cn(-c2c(F)cc(F)cc2Cl)c2nc(N3CC(CO)(CO)C3)c(F)cc2c1=O` (single isomer, unassigned) [Example 71], on human M2 receptor [1], the “Cooperativity (alpha factor)” value is 26. On human M2 receptor [2], this compound gave an EC50 of 4.2 nM and an Efficiency of 94%.

For the compound `O=C(N[C@@H](C1CC1)C(F)(F)F)c1cn(-c2c(F)cc(F)cc2F)c2nc(N3CC[C@H](O)C3)c(F)cc2c1=O` [Example 108, N-[(1S)-1-Cyclopropyl-2,2,2-trifluoroethyl]-6-fluoro-7-[(3S)-3-hydroxypyrrolidin-1-yl]-4-oxo-1-(2,4,6-trifluorophenyl)-1,4-dihydro-1,8-naphthyridine-3-carboxamide], the “Cooperativity (alpha factor)” value on human M2 receptor [1] was 47. On human M2 receptor [2], a half-maximal effect (EC50) was put at 5.4 nM and the Emax amounted to 96%.

As to `CC(NC(=O)c1cn(-c2c(F)cc(F)cc2F)c2nc(N3CCC(O)C(O)C3)c(F)cc2c1=O)C(F)(F)C(F)(F)F` (single isomer, unassigned) [Example 182, 7-(3,4-Dihydroxypiperidin-1-yl)-6-fluoro-4-oxo-N-(3,3,4,4,4-pentafluorobutan-2-yl)-1-(2,4,6-trifluorophenyl)-1,4-dihydro-1,8-naphthyridine-3-carboxamide], the “Cooperativity (alpha factor)” value at human M2 receptor [1] worked out at 27. Besides, at human M2 receptor [2], a half-maximal response (EC50) required 8.8 nM and the Emax stood at 100%.

On to `CC(C)[C@H](C)NC(=O)c1cn(-c2c(F)cc(F)cc2F)c2nc(N3C[C@@H](O)[C@H](O)C3)c(F)cc2c1=O` [Example 16, 7-[(3R,4R)-3,4-dihydroxypyrrolidin-1-yl]-6-fluoro-N-[(2S)-3-methylbutan-2-yl]-4-oxo-1-(2,4,6-trifluorophenyl)-1,4-dihydro-1,8-naphthyridine-3-carboxamide], for which the “Cooperativity (alpha factor)” value at human M2 receptor [1] is 42. On human M2 receptor [2], this compound came in with an EC50 of 8.45 nM and an Emax of 99%.

Turning to `CCC(COC(F)(F)F)NC(=O)c1cn(-c2c(F)cc(F)cc2F)c2nc(N3C[C@@H](O)[C@H](O)C3)c(F)cc2c1=O` (single isomer, unassigned) [Example 31], the “Cooperativity (alpha factor)” value on human M2 receptor [1] is 37. At human M2 receptor [2], this compound had an EC50 of 4.15 nM and an Emax of 100%.

For `CC(NC(=O)c1cn(-c2c(F)cc(F)cc2F)c2nc(N3CCCC[C@@H]3CO)c(F)cc2c1=O)C(F)(F)C(F)(F)F` (single isomer, unassigned) [Example 185], the “Cooperativity (alpha factor)” value on human M2 receptor [1] came to 13. At human M2 receptor [2], a half-maximal response (EC50) required 6.4 nM and the Emax worked out at 83%.

Regarding `CC(C)C(NC(=O)c1cn(-c2c(F)cc(F)cc2F)c2nc(N3C[C@@H](O)[C@H](O)C3)c(F)cc2c1=O)C(C)C` [Example 24, 7-[(3R,4R)-3,4-dihydroxypyrrolidin-1-yl]-N-(2,4-dimethylpentan-3-yl)-6-fluoro-4-oxo-1-(2,4,6-trifluorophenyl)-1,4-dihydro-1,8-naphthyridine-3-carboxamide], the “Cooperativity (alpha factor)” value on human M2 receptor [1] worked out at 57. On human M2 receptor [2], this compound registered an EC50 of 1.35 nM and an Emax of 100%.

For the compound `CC(NC(=O)c1cn(-c2c(F)cc(F)cc2F)c2nc(N3CCC(O)(CO)CC3)c(F)cc2c1=O)C(F)(F)C(F)(F)F` (single isomer, unassigned) [Example 186, 6-Fluoro-7-[4-hydroxy-4-(hydroxymethyl)piperidin-1-yl]-4-oxo-N-[3,3,4,4,4-pentafluorobutan-2-yl]-1-(2,4,6-trifluorophenyl)-1,4-dihydro-1,8-naphthyridine-3-carboxamide], the “Cooperativity (alpha factor)” value at human M2 receptor [1] is listed as 20. On human M2 receptor [2], this compound had an EC50 of 5.8 nM and an Emax of 87%.

With `CC[C@H](NC(=O)c1cn(-c2c(F)cc(F)cc2F)c2nc(N3CC[C@H](O)C3)c(F)cc2c1=O)C(F)(F)F` [Example 115, 6-Fluoro-7-[(3S)-3-hydroxypyrrolidin-1-yl]-4-oxo-N-[(2S)-1,1,1-trifluorobutan-2-yl]-1-(2,4,6-trifluorophenyl)-1,4-dihydro-1,8-naphthyridine-3-carboxamide], on human M2 receptor [1], the “Cooperativity (alpha factor)” value is 53. At human M2 receptor [2], this compound registered an EC50 of 6.65 nM and an Emax of 98%.

For `CCC(NC(=O)c1cn(-c2c(F)cc(F)cc2F)c2nc(N3CC(CO)(CO)C3)c(F)cc2c1=O)C(F)(F)C(F)(F)F` (racemic) [Example 173, 7-[3,3-Bis(hydroxymethyl)azetidin-1-yl]-6-fluoro-4-oxo-N-[1,1,1,2,2-pentafluoropentan-3-yl]-1-(2,4,6-trifluorophenyl)-1,4-dihydro-1,8-naphthyridine-3-carboxamide], the “Cooperativity (alpha factor)” value at human M2 receptor [1] came out at 39. Further, on human M2 receptor [2], the EC50 was 2.5 nM and the Efficiency is recorded as 99%.

With `CC(C)(NC(=O)c1cn(-c2c(F)cc(F)cc2F)c2nc(N3C[C@@H](O)[C@H](O)C3)c(Br)cc2c1=O)C(F)(F)F` [Example 159, 6-Bromo-7-[(3R,4R)-3,4-dihydroxypyrrolidin-1-yl]-4-oxo-N-(1,1,1-trifluoro-2-methylpropan-2-yl)-1-(2,4,6-trifluorophenyl)-1,4-dihydro-1,8-naphthyridine-3-carboxamide], at human M2 receptor [1], the “Cooperativity (alpha factor)” value was determined as 45. On human M2 receptor [2], this compound showed an EC50 of 7.1 nM and an Emax of 100%.
